Measured values reported in US9663496B2, “AMPK-activating heterocyclic compounds and methods for using the same” (Rigel Pharmaceuticals, Inc., priority 2010, dated 2017).

Target: AMPK
Assay: AMPK activation, enzyme-linked immunosorbent assay
Format: biochemical
Details: EC50 for AMPK activation, ELISA
Procedure, shortened: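 Activator screen performed per well-known kit methods.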

COc1ccc(C(=O)C2CCN(C(=O)c3ccc(C(=O)NC4CCN(Cc5ccc(F)cc5)CC4)nc3)CC2)cc1 [Compound 178, N-(1-(4-fluorobenzyl)piperidin-4-yl)-5-(4-(4-methoxybenzoyl)piperidine-1-carbonyl)picolinamide] and COc1ccc(CN2CCC(NC(=O)c3ccc(C(=O)N4CCC(C(=O)c5ccc(F)cc5)CC4)cn3)CC2)cc1 [Compound 160, 5-(4-(4-fluorobenzoyl)piperidine-1-carbonyl)-N-(1-(4-methoxybenzyl)piperidin-4-yl)picolinamide] cannot be ordered by EC50: < 500 nM for the first, < 500 nM for the second.

First: N#Cc1ccc(CN2CCC(NC(=O)c3ccc(C(=O)N4CCN(S(=O)(=O)c5ccccc5)CC4)cn3)CC2)cc1 [Compound 82, N-(1-(4-cyanobenzyl)piperidin-4-yl)-5-(4-(phenylsulfonyl)piperazine-1-carbonyl)picolinamide]
Second: COc1ccc(CN2CCN(C(=O)c3ccc(C(=O)NC4CCN(Cc5ccc(C#N)cc5)CC4)nc3)CC2)cc1 [Compound 101, N-(1-(4-cyanobenzyl)piperidin-4-yl)-5-(4-(4-methoxybenzyl)piperazine-1-carbonyl)picolinamide]
The EC50 of the first is higher: 500 to 1000 nM for the first, < 500 nM for the second.

COc1ccc(C(=O)C2CCN(C(=O)c3ccc(C(=O)N[C@H]4CC[C@@H](Oc5ccc(F)cc5)CC4)nc3)CC2)cc1 [Compound 311, N-((cis)-4-(4-fluorophenoxy)cyclohexyl)-5-(4-(4-methoxybenzoyl)piperidine-1-carbonyl)picolinamide] and O=C(N[C@H]1CC[C@@H](Oc2ccc(F)cc2)CC1)c1ccc(C(=O)N2CCC(Oc3ccc(F)cc3)CC2)cn1 [Compound 312, N-((cis)-4-(4-fluorophenoxy)cyclohexyl)-5-(4-(4-fluorophenoxy)piperidine-1-carbonyl)picolinamide] cannot be ordered by EC50: < 500 nM for the first, < 500 nM for the second.

First: N#Cc1ccc(CN2CCC(NC(=O)c3ccc(C(=O)Nc4cccc(Cc5ccccc5)c4)cn3)CC2)cc1 [Compound 5, N^2-(1-(4-cyanobenzyl)piperidin-4-yl)-N^5-(3-benzylphenyl)pyridine-2,5-dicarboxamide]
Second: N#Cc1ccc(CN2CCC(NC(=O)c3ccc(C(=O)N4CCC(C(=O)c5ccc(-n6cccn6)cc5)CC4)cn3)CC2)cc1 [Compound 375, 5-(4-(4-(1H-pyrazol-1-yl)benzoyl)piperidine-1-carbonyl)-N-(1-(4-cyanobenzyl)piperidin-4-yl)picolinamide]
The EC50 of the first is higher: 500 to 1000 nM for the first, < 500 nM for the second. The second is the more potent here.

COc1ccc(OC2CCN(C(=O)c3ccc(C(=O)N[C@H]4CC[C@H](Oc5ccc(C#N)cc5)CC4)nc3)CC2)cc1 [Compound 172, N-((trans)-4-(4-cyanophenoxy)cyclohexyl)-5-(4-(4-methoxyphenoxy)piperidine-1-carbonyl)picolinamide] and CS(=O)(=O)c1ccc(OC2CCN(C(=O)c3ccc(C(=O)NC4CCC(Oc5ccc(C#N)cc5)CC4)cn3)CC2)cc1 (centres unmarked) [Compound 398, N-(4-(4-cyanophenoxy)cyclohexyl)-6-(4-(4-(methylsulfonyl)phenoxy)piperidine-1-carbonyl)nicotinamide] cannot be ordered by EC50: < 500 nM for the first, < 500 nM for the second.

Going from COc1ccc(OC2CCN(C(=O)c3ccc(C(=O)NC4CCN(Cc5ccc(C#N)cc5)CC4)cn3)CC2)c(N(C)C)c1 [Compound 385, N-(1-(4-cyanobenzyl)piperidin-4-yl)-6-(4-(2-(dimethylamino)-4-methoxyphenoxy)piperidine-1-carbonyl)nicotinamide] to N#Cc1ccc(CN2CCC(NC(=O)c3ccc(C(=O)N4CCC(Oc5ccc(C(F)(F)F)cc5)CC4)cn3)CC2)cc1 [Compound 157, N-(1-(4-cyanobenzyl)piperidin-4-yl)-5-(4-(4-(trifluoromethyl)phenoxy)piperidine-1-carbonyl)picolinamide], the EC50 falls from > 10000 nM to < 500 nM. The second is the more potent here.

Compared with O=C(NC1CCN(Cc2ccc(F)cc2)CC1)c1ccc(C(=O)N2CCC(Oc3cccc(NC(=O)C4CC4)c3)CC2)nc1 [Compound 432, 6-(4-(3-(cyclopropanecarboxamido)phenoxy)piperidine-1-carbonyl)-N-(1-(4-fluorobenzyl)piperidin-4-yl)nicotinamide], O=C(Nc1ccc(Oc2ccc(F)cc2)nc1)c1ccc(C(=O)N2CCC(Oc3cccc(NC(=O)C4CC4)c3)CC2)nc1 [Compound 433, 6-(4-(3-(cyclopropanecarboxamido)phenoxy)piperidine-1-carbonyl)-N-(6-(4-fluorophenoxy)pyridin-3-yl)nicotinamide] is lower in EC50: 500 to 1000 nM for the first, < 500 nM for the second. The second is the more potent here.

COc1ccc(C(=O)C2CCN(C(=O)c3ccc(C(=O)N[C@@H]4CCN(Cc5ccc(C#N)cc5)C[C@H]4F)cn3)CC2)cc1 (relative stereo) [Compound 349, N-((trans)-1-(4-cyanobenzyl)-3-fluoropiperidin-4-yl)-6-(4-(4-methoxybenzoyl)piperidine-1-carbonyl)nicotinamide] and CN1CCN(c2ccc(C(=O)C3CCN(C(=O)c4ccc(C(=O)NC5CCN(Cc6ccc(C#N)cc6)CC5)nc4)CC3)cc2)CC1 [Compound 380, N-(1-(4-cyanobenzyl)piperidin-4-yl)-5-(4-(4-(4-methylpiperazin-1-yl)benzoyl)piperidine-1-carbonyl)picolinamide] cannot be ordered by EC50: < 500 nM for the first, < 500 nM for the second.

First: CS(=O)(=O)c1ccc(OC2CCN(C(=O)c3ccc(C(=O)NC4CCN(Cc5ccc(N6CCCC6)cc5)CC4)cn3)CC2)cc1 [Compound 230, 6-(4-(4-(methylsulfonyl)phenoxy)piperidine-1-carbonyl)-N-(1-(4-(pyrrolidin-1-yl)benzyl)piperidin-4-yl)nicotinamide]
Second: O=C(NC1CCN(Cc2cccc(OC(F)(F)F)c2)CC1)c1ccc(C(=O)N2CCC(C(=O)c3ccc(N4CCCC4)cc3)CC2)nc1 [Compound 441, 6-(4-(4-(pyrrolidin-1-yl)benzoyl)piperidine-1-carbonyl)-N-(1-(3-(trifluoromethoxy)benzyl)piperidin-4-yl)nicotinamide]
The EC50 of the first is higher: 500 to 1000 nM for the first, < 500 nM for the second. The second is the more potent here.

Compared with O=C(c1ccc(C(=O)N2CCN(CCc3ccccc3)CC2)nc1)N1CCN(c2ccccc2)CC1 [Compound 90, (4-phenethylpiperazin-1-yl)(5-(4-phenylpiperazine-1-carbonyl)pyridin-2-yl)methanone], O=C(NC1CCN(Cc2cc(F)cc(F)c2)CC1)c1ccc(C(=O)N2CCC(C(=O)c3ccc(F)cc3)CC2)cn1 [Compound 288, N-(1-(3,5-difluorobenzyl)piperidin-4-yl)-5-(4-(4-fluorobenzoyl)piperidine-1-carbonyl)picolinamide] is lower in EC50: > 10000 nM for the first, < 500 nM for the second.

COc1ccc(C(=O)C2CCN(C(=O)c3ccc(C(=O)NC4CCN(Cc5cc(F)cc(F)c5)CC4)nc3)CC2)cc1 [Compound 287, N-(1-(3,5-difluorobenzyl)piperidin-4-yl)-5-(4-(4-methoxybenzoyl)piperidine-1-carbonyl)picolinamide] and O=C(NC1CCN(Cc2cc(F)cc(F)c2)CC1)c1ccc(C(=O)N2CCC(Oc3ccc(C(F)(F)F)cc3)CC2)cn1 [Compound 294, N-(1-(3,5-difluorobenzyl)piperidin-4-yl)-5-(4-(4-(trifluoromethyl)phenoxy)piperidine-1-carbonyl)picolinamide] cannot be ordered by EC50: < 500 nM for the first, < 500 nM for the second.

In the case of CC(C)(C)OC(=O)NCCCc1cc(C(=O)N2CCN(Cc3ccc(F)cc3)CC2)cnc1C(=O)NC1CCN(Cc2ccc(C#N)cc2)CC1 [Compound 290, tert-butyl 3-(2-(1-(4-cyanobenzyl)piperidin-4-ylcarbamoyl)-5-(4-(4-fluorobenzyl)piperazine-1-carbonyl)pyridin-3-yl)propylcarbamate], the EC50 is reported as < 500 nM.
